# Assay results reported in patent publication US20180312493A1, “Antibiotic Compounds, Pharmaceutical Formulations Thereof And Methods And Uses Therefor” (Simon Fraser University, priority 2015, published 2018).
# Where a name gives a salt, the structure may show the parent alone. Read-outs that look alike come from different tables or passages of the source.
# Key:
# [1] = test system: MRSA MW2 (USA400); assay: In vitro susceptibility, broth microdilution (MIC); assay type: cell-based, methicillin resistant S. aureus; settings: Staphylococcus aureus, read-out: Antimicrobial activity (MIC) MSRA USA400
# Procedure, shortened: (§1)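 MIC determined by CLSI 2-fold broth microdilution in cation-adjusted Mueller–Hinton broth at ~2.5×10^5 CFU/ml, final compound 0.031–64 μg/ml, 18–24 h at 37 °C. MIC is the lowest concentration giving complete growth inhibition by background-corrected OD600 versus compound-free wells; duplicate or triplicate wells, replicated at least twice.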
# [2] = test system: A. baumannii (ATCC 17978); assay: In vitro susceptibility, broth microdilution (MIC); assay type: cell-based; settings: Acinetobacter baumannii
# Procedure, shortened: as §1
# [3] = test system: VRE#2 (2010A); assay: In vitro susceptibility, broth microdilution (MIC); assay type: cell-based, vancomycin resistant Enterococci; settings: read-out: Antimicrobial activity (MIC) VRE#2
# Procedure, shortened: as §1
# [4] = molecular target: T1, MRSA Pyk (Staphylococcus aureus, UniProt Q6GG09); assay: MRSA pyruvate kinase (PK) activity, continuous LDH-coupled assay; assay type: biochemical, methicillin resistant S. aureus (MRSA252)
# T1 construct: made in house; host or cells: E. coli BL-21 (DE3)
# T1 sequence (Q6GG09 whole entry): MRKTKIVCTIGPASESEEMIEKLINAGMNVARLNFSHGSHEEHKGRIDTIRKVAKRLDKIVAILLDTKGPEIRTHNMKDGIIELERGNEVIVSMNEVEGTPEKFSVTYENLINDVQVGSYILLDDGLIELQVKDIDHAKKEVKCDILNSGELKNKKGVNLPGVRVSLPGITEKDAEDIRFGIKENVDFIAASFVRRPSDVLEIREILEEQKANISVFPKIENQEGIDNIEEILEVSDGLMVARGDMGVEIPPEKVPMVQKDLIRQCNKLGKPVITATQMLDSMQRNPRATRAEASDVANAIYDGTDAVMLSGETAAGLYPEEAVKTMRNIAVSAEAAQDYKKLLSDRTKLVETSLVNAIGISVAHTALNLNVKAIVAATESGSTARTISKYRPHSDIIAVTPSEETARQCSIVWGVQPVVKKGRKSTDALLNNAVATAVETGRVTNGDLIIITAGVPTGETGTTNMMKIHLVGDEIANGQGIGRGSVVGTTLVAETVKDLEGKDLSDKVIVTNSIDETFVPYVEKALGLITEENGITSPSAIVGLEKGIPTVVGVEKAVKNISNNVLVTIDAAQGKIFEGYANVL
# Procedure, shortened: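 His-tagged MRSA PK (strain Sanger 252) and human PK isoforms expressed in E. coli BL-21 (DE3) and Ni-NTA purified, used at 15 nM in an LDH-coupled assay following NADH oxidation at 340 nm, 30° C, up to 5 min, ≤1% DMSO. IC50 from four-parameter variable-slope fit; Ki with PEP 2-20 mM, ADP fixed 2 mM, inhibitor 0-400 nM.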
# [5] = test system: K. pneumoniae (C238); assay: In vitro susceptibility, broth microdilution (MIC); assay type: cell-based; settings: Klebsiella pneumoniae, read-out: Antimicrobial activity (MIC) K. pneumoniae
# Procedure, shortened: (§2)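 CLSI 2-fold serial broth microdilution; K. pneumoniae C238 grown in L-broth, S. aureus ATCC 29213 in Mueller Hinton broth, plates incubated 18–24 h at 37 °C. MIC taken as lowest concentration giving complete growth inhibition by OD600 versus compound-free wells, background-subtracted.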
# [6] = test system: S. aureus (ATCC29213); assay: In vitro susceptibility, broth microdilution (MIC); assay type: cell-based; settings: Staphylococcus aureus
# Procedure, shortened: as §2
# [7] = test system: A. baumannii (ATCC 19606); assay: In vitro susceptibility, broth microdilution (MIC); assay type: cell-based; settings: Acinetobacter baumannii, ATCC19606; A. baumannii ATCC 19606 (values without asterisk); read-out: Antimicrobial activity (MIC) A. baumannii
# Procedure, shortened: as §1
# [8] = test system: S. aureus ATCC 29123; assay: Thigh infection model in neutropenic mice; assay type: in vivo, female CD-1 mice; settings: thigh muscle, 10 mg/kg IV BID (2 and 8 h post-infection), 24 hr post infection
# Method: The antimicrobial activity of compounds 23 and 60 against S. aureus ATCC 29123 was tested in vivo using a thigh infection model in neutropenic mice. Briefly, animals (female CD-1 mice, 5 weeks of age) were made neutropenic prior to S. aureus thigh infection by pre-treating with cyclophosphamide (150 mg/kg, IP, −4 and −1 days pre-inoculation). On the inoculation day (day 0), mice were infected with S. aureus at time zero (t=0). Animals were individually monitored for adverse reactions for 30 min post-infection.
# Compounds 23 and 60 were prepared for IV administration and for oral administration. Vancomycin was administered as a solution in PBS. The test compounds were administered at 2 and 8 hours post-infection and animals were individually monitored for adverse reactions for 30 min after each injection. All animals were then monitored hourly from 20 hours post infection to the endpoint (t=24 hr post infection). At the indicated timepoint, animals were sacrificed and the injected thigh collected.
# Quantitative enumeration of bacterial load was determined by plating serial dilutions from homogenized thigh muscles. The plates were incubated and colony counts were determined. CFU per mL calculated was calculated.
# [9] = test system: S. typhimurium (ATCC BAA-185); assay: In vitro susceptibility, broth microdilution (MIC); assay type: cell-based; settings: Salmonella enterica, read-out: Antimicrobial activity (MIC) S. typhimurium
# Procedure, shortened: as §1
# [10] = test system: MRSA (ATCC BAA-1762); assay: In vitro susceptibility, broth microdilution (MIC); assay type: cell-based, methicillin resistant S. aureus; settings: Staphylococcus aureus; MRSA ATCC BAA-1762; read-out: Antimicrobial activity (MIC) MRSA ATCC BAA1762
# Procedure, shortened: as §1
# [11] = ATCC17978, A. baumannii ATCC 17978 (values marked *), read-out: Antimicrobial activity (MIC) A. baumannii
# [12] = S. aureus ATCC29213, 18-24 h, 37 C, read-out: Antimicrobial activity (MIC) S. aureus ATCC29213
SMILES,MIC ([1]; MRSA MW2 (USA400)),"MIC [2, 11]",MIC ([3]; VRE#2 (2010A)),IC50 [4],MIC [5],"MIC [6, 12]",MIC [1],"MIC ([2]; ATCC17978, read-out: Antimicrobial activity (MIC) A. baumannii)",MIC [3],"MIC ([6]; ATCC29213, read-out: Antimicrobial activity (MIC) S. aureus ATCC29213)",MIC ([5]; K. pneumoniae (C238)),MIC [7],reduction in CFU [8],MIC [9],MIC [10]
"CN(C)CCC(=O)c1c(/C=C/c2ccc(Cl)cc2)[nH]c2cc(Br)ccc12.Cl [Compound 6, (E)-1-(6-Bromo-2-(4-chlorostyryl)-1H-indol-3-yl)-3-(dimethylamino)propan-1-one Hydrochloride]",8 µg/mL,64 µg/mL,8 µg/mL,100 to 1000 nM,8 µg/mL,8 µg/mL,–,–,–,–,–,–,–,–,–
"CN1CCN(CCC(=O)c2c(/C=C/c3ccc(Cl)cc3)[nH]c3cc(Br)ccc23)CC1 [Compound 7, (E)-1-(6-Bromo-2-(4-chlorostyryl)-1H-indol-3-yl)-3-(4-methylpiperazin-1-yl)propan-1-one Hydrochloride]",–,–,–,100 to 1000 nM,8 µg/mL,–,8 µg/mL,> 64 µg/mL,8 µg/mL,8 µg/mL,–,–,–,–,–
"Oc1cc(/C=C/c2cc3ccc(Br)cc3[nH]2)ccc1Cl [Compound 11, (E)-5-(2-(6-bromo-1H-indol-2-yl)vinyl)-2-chlorophenol]",2 µg/mL,> 64 µg/mL,–,–,–,2 µg/mL,–,–,–,–,4 µg/mL,–,–,–,–
"CN(C)CCOc1cc(/C=C/c2cc3ccc(Br)cc3[nH]2)ccc1Cl [Compound 12, (E)-2-(5-(2-(6-bromo-1H-indol-2-yl)vinyl)-2-chlorophenoxy)-N,N-dimethylethanamine]",4 µg/mL,–,–,100 to 1000 nM,–,4 µg/mL,–,–,–,–,4 µg/mL,16 µg/mL,–,–,–
"CN(C)CCNC(=O)c1c(/C=C/c2ccc(Cl)cc2)[nH]c2cc(Br)ccc12 [Compound 23, (E)-6-Bromo-2-(4-chlorostyryl)-N-(2-(dimethylamino)ethyl)-1H-indole-3-carboxamide]",–,–,–,< 100 nM,–,8 µg/mL,–,–,–,–,–,–,3 log,–,–
"CN1CCN(CCOC(=O)c2c(/C=C/c3ccc(Cl)cc3)[nH]c3cc(Br)ccc23)CC1 [Compound 61, 2-(4-Methylpiperazin-1-yl)ethyl (E)-6-bromo-2-(4-chlorostyryl)-1H-indole-3-carboxylate]",4 µg/mL,> 64 µg/mL,4 µg/mL,100 to 1000 nM,–,4 µg/mL,–,–,–,–,4 µg/mL,–,–,–,–
"CC(=O)Nc1c(CCc2ccc(Cl)cc2)[nH]c2cc(Br)ccc12 [Compound 96, N-(6-Bromo-2-(4-chlorophenethyl)-1H-indol-3-yl)acetamide]",> 64 µg/mL,–,> 64 µg/mL,> 1000 nM,–,64 µg/mL,–,–,–,–,> 64 µg/mL,–,–,–,–
"O=C(O)CCCC(=O)c1c(-c2cc3cc(Cl)ccc3[nH]2)[nH]c2cc(Br)ccc12 [Compound 102, 5-(6-bromo-5′-chloro-1H,1′H-[2,2′-biindol]-3-yl)-5-oxopentanoic Acid]",8 µg/mL,–,16 µg/mL,< 100 nM,–,8 µg/mL,–,–,–,–,16 µg/mL,–,–,8 µg/mL,–
"CN1CCN(CCNC(=O)CCCC(=O)c2c(-c3cc4cc(Cl)ccc4[nH]3)[nH]c3cc(Br)ccc23)CC1 [Compound 106, 5-(6-bromo-5′-chloro-1H,1′H-[2,2′-biindol]-3-yl)-N-(2-(4-methylpiperazin-1-yl)ethyl)-5-oxopentanamide]",8 µg/mL,–,8 µg/mL,< 100 nM,–,8 µg/mL,–,–,–,–,8 µg/mL,> 64 µg/mL,–,–,–
"CN(C)CCNC(=O)CCCC(=O)c1c(-c2cc3cc(Cl)ccc3[nH]2)[nH]c2cc(Br)ccc12 [Compound 107, 5-(6-bromo-5′-chloro-1H,1′H-[2,2′-biindol]-3-yl)-N-(2-(dimethylamino)ethyl)-5-oxopentanamide]",4 µg/mL,–,4 µg/mL,< 100 nM,–,4 µg/mL,–,–,–,–,4 µg/mL,–,–,–,–
"O=C(O)CCCC(=O)c1c(-c2cc3cc(Cl)ccc3[nH]2)[nH]c2cc(-c3cc4cc(Cl)ccc4[nH]3)ccc12 [Compound 108, 5-(5,5″-dichloro-1H,1′H,1″H-[2,2′:6′,2″-terindol]-3′-yl)-5-oxopentanoic Acid]",2 µg/mL,–,2 µg/mL,> 1000 nM,–,1 µg/mL,–,–,–,–,2 µg/mL,–,–,–,–
"CC(C)c1nc2c(cc1-c1ccc(Cl)cc1)[nH]c1cc(Br)ccc12 [Compound 114, 7-bromo-3-(4-chlorophenyl)-2-isopropyl-5H-pyrido[3,2-b]indole]",8 µg/mL,–,4 µg/mL,100 to 1000 nM,–,32 µg/mL,–,–,–,–,8 µg/mL,–,–,–,–
"CN(C)CCOc1cc2[nH]c(-c3cc4ccc(Br)cc4[nH]3)cc2cc1Cl [Compound 199, 2-((6′-Bromo-5-chloro-1H,1′H-[2,2′-biindol]-6-yl)oxy)-N,N-dimethylethan-1-amine]",–,–,4 µg/mL,< 100 nM,–,4 µg/mL,–,–,–,–,–,8 µg/mL,–,32 µg/mL,4 µg/mL
"O=C(O)CCNC(=O)c1c(-c2cc3cc(Cl)ccc3[nH]2)[nH]c2cc(Br)ccc12 [Compound 205, 3-(6-Bromo-5′-chloro-1H,1′H-[2,2′-biindole]-3-carboxamido)propanoic Acid]",32 µg/mL,> 64 µg/mL,–,< 100 nM,–,32 µg/mL,–,–,–,–,–,–,–,–,64 µg/mL
"Clc1cc2nc(-c3cc4ccc(Br)cc4[nH]3)[nH]c2cc1Cl [Compound 207, 2-(6-Bromo-1H-indol-2-yl)-5,6-dichloro-1H-benzo[d]imidazole]",1 µg/mL,–,32 µg/mL,< 100 nM,–,0.5 µg/mL,–,–,–,–,16 µg/mL,> 64 µg/mL,–,–,–
